Consider two compounds from publication PMC12337661, “PIEZO1 mechanical insensitivity in generalized lymphatic dysplasia with the potential for pharmacological rescue” (iScience, 2025).

In one series the target is T1, I2270T hPIEZO1 (Homo sapiens, UniProt Q92508, I2270T).
T1 construct: expressed in transfected cells; host or cells: T-REx-293 (modified HEK293), transient
Kind of series: Intracellular Ca2+ measurement (fura-2), T-REx-293 cells transiently transfected. It is filed as cell-based. As to the method:
(§1) HEK 293 cell line was transiently transfected at 90% confluence using Lipofectamine 2000 (Invitrogen) in OptiMEM (Gibco). Briefly: 500 ng endotoxin-free DNA per 100μL OptiMEM was prepared alongside 3μL Lipofectamine 2000 per 100μL OptiMEM (Gibco). Both were incubated for 5 min and then mixed, and then incubated at room temperature (21°C–24°C) for 20–30 min. Finally, the transfection mix was gently added dropwise to the cells and the cells were placed in a humidified incubator at 37°C supplied with 5% CO2 for 5 h. Medium was replaced afterward, and cells were used for experimentation 48 h after transfection.
(§2) For intracellular Ca^2+ assays, cells were plated at 80–90% confluence in 96-well plates 24 h prior to recordings (6–8 × 10^4 cells per well). […] Cells were washed with SBS and incubated at room temperature for 20 min prior to recordings. Equal volumes of 2x concentrated compounds were injected to test for acute channel activation. Pre-incubation with compounds occurred during the 20 min prior to recordings. To expose cell membranes to hypo-osmolality, an equal volume of hypotonic SBS (containing only 35 mM NaCl) was injected onto the cells. Measurements were made on a fluorescence plate reader (Flexstation III, Molecular Devices) at room temperature (21 ± 2°C). Fura-2 was excited at 340 nm and 380 nm and emitted light collected at 510 nm, with measurements shown as the change in fluorescence (F) ratio (ΔF340/380).
(§3) KC41 (Dooku1) was prepared as described.[28] All purchased chemicals and solvents were used without further purification unless otherwise stated. All compounds were at least 95% pure by 1H NMR. 1H Nuclear Magnetic Resonance spectra were recorded at 500 MHz using a Bruker DRX 500 instrument or at 400 MHz using a Bruker DPX 400. 1H spectra are referenced based on the residual proton in the solvent (e.g., the CHCl3, 0.01% in 99.99% CDCl3). Coupling constants (J) are reported to the nearest 0.1 Hz. 13C NMR spectra were recorded at 125 MHz on 500 MHz spectrometers or at 100 MHz on 400 MHz spectrometers. LC-MS was performed on a Bruker Daltronics running a gradient of increasing acetonitrile (5–95%) in H2O both containing 0.1% formic acid at 1 mL.min^−1, on a short path C18 reverse phase column, detecting compounds with both a diode array detector and a Bruker mass spectrum analyser. HRMS was performed on a Bruker Daltonics micrOTOF using positive electrospray ionisation (ES+). Automated column chromatograph was carried out using a Biotage Isolera Four, using either Sfär Silica D or KP-Silica cartridges. HPLC was performed on an Agilent 1290 Infinity Series equipped with a UV detector and Hyperprep C18 reverse phase column. Key to NMR abbreviations: s (singlet), br s (broad singlet) d (doublet), dd (doublet of doublets), ddd (doublet of doublets of doublets), t (triplet), dt (doublet of triples), q (quartet), m (multiplet), ap. t (apparent triplet). For experiments, Yoda1 and its analogues were prepared as 10 mM stock solutions in 100% dimethyl sulfoxide (DMSO) before serial dilution in DMSO and final dilution in aqueous solution. Cells were exposed to 0.1% DMSO for all concentrations of the compounds from 0 to 10 μM.

For another series, the target named is T2, R2335Q hPIEZO1 (Homo sapiens, UniProt Q92508, R2335Q).
T2 construct: expressed in transfected cells; host or cells: T-REx-293 (modified HEK293), transient
The series is described as above. In kind it is cell-based. As to conditions: 1 μM Y1, versus WT. As to the method: as §1, §2, §3

In another series the target is T3, G1978D hPIEZO1 (Homo sapiens, UniProt Q92508, G1978D).
T3 construct: expressed in transfected cells; host or cells: T-REx-293 (modified HEK293), transient
The series is described as above. It is filed as cell-based. As to conditions: 1 μM Y1, versus WT. As for the experimental part: as §1, §2, §3

Series [1] in a line: Mouse microsomal stability. In kind it is in vitro ADME. Conditions: mouse microsomes. As for the experimental part: Aqueous solubility, mouse microsomal stability and mouse plasma protein binding assays were performed by Malvern Panalytical (UK) as previously described.[29]

T1 sequence (Q92508 whole entry I2270T): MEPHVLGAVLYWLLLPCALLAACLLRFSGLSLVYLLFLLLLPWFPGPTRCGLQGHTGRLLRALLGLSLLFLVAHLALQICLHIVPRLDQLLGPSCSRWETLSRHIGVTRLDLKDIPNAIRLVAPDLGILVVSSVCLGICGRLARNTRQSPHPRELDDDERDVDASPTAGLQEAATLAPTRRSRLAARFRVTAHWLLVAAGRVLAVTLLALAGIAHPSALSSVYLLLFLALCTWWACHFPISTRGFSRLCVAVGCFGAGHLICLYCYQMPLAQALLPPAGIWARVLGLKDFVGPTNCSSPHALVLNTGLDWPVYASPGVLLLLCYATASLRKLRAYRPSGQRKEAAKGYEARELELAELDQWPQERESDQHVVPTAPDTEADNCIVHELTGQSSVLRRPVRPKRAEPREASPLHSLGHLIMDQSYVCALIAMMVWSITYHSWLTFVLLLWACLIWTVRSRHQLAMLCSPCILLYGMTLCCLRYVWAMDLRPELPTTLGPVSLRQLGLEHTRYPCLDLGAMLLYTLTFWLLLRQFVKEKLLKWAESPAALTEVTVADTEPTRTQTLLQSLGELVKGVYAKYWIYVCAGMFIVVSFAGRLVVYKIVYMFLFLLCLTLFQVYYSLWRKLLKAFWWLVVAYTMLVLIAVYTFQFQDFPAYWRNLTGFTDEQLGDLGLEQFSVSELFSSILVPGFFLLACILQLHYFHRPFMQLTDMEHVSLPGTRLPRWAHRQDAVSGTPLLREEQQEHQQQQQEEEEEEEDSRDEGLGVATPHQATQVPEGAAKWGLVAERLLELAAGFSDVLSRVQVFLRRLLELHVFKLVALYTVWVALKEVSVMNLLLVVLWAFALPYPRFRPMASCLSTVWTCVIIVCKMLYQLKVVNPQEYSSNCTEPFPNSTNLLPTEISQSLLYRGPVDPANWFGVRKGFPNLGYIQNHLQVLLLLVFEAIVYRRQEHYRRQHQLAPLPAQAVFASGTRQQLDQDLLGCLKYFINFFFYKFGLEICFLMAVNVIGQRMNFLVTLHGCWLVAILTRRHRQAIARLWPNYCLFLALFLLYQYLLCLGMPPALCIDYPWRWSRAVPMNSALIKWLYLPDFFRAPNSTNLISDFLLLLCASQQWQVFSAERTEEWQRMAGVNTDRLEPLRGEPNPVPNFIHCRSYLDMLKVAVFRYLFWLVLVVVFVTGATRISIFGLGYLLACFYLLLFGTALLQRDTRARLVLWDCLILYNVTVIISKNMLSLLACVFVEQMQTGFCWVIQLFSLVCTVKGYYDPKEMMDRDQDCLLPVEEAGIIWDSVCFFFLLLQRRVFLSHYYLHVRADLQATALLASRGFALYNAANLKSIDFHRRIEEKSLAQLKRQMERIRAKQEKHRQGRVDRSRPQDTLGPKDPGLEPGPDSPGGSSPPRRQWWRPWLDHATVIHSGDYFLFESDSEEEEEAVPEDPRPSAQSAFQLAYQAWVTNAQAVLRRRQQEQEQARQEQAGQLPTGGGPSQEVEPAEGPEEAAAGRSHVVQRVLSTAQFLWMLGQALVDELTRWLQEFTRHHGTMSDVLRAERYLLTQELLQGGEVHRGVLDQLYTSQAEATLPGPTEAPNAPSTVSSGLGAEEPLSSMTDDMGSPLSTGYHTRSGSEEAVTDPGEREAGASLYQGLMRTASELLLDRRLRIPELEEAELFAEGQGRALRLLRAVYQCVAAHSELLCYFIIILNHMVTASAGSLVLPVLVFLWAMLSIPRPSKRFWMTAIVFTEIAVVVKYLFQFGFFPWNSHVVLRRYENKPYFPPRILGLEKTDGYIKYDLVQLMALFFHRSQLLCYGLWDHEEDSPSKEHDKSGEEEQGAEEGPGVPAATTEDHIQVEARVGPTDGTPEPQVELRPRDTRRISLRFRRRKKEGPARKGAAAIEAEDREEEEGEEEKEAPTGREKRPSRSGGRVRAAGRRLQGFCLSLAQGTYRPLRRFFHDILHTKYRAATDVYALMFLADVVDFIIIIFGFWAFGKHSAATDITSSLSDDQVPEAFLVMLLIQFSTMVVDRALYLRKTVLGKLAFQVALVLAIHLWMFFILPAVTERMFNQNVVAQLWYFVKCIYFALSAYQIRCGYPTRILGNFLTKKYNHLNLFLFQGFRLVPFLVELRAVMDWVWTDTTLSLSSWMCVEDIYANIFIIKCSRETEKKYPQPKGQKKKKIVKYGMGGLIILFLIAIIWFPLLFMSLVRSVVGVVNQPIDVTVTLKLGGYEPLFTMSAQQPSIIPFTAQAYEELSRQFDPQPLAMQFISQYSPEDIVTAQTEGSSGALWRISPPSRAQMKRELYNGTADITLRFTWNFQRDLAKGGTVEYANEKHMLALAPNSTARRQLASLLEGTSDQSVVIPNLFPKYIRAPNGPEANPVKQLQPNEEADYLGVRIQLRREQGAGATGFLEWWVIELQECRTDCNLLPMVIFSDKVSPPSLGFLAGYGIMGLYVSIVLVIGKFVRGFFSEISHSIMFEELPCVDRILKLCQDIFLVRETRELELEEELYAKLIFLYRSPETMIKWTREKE
T3 sequence (Q92508 whole entry G1978D): as the sequence (Q92508 whole entry I2270T) above, with G1978D, T2270I counted along it
T2 sequence (Q92508 whole entry R2335Q): as the sequence (Q92508 whole entry I2270T) above, with T2270I, R2335Q counted along it

`Clc1cccc(Cl)c1CSc1nnc(-c2cnccn2)s1` [Yoda1]: the “Effect on hPIEZO1 channel function” value on I2270T hPIEZO1 (1 μM Y1, versus WT) is “loss of MA: LOF; reduced 1 μM Y1 effect”; on R2335Q hPIEZO1 it was “reduced 1 μM Y1 effect”; at G1978D hPIEZO1 it was “reduced 1 μM Y1 effect”. The “Ca2+ signal 30-60 s after application, normalized to WT, vector control subtracted, Mean” value at I2270T hPIEZO1 (1 μM, n = 4) is reported as 0.1013. The “fluorescence (ΔFratio)” value is on record as 6.26E-04 at I2270T hPIEZO1 (1 μM, time 0 s); -0.00991 on I2270T hPIEZO1 (1 μM, time 5 s); -0.00857 on I2270T hPIEZO1 (1 μM, time 10 s); 0.00155 on I2270T hPIEZO1 (1 μM, time 15 s); 0.00344 at I2270T hPIEZO1 (1 μM, time 20 s); 0.01286 on I2270T hPIEZO1 (1 μM, time 25 s). The “fluorescence (ΔFratio)” value on I2270T hPIEZO1 (1 μM, time 30 s) was -0.01023; on I2270T hPIEZO1 (1 μM, time 35 s), -0.00138; on I2270T hPIEZO1 (1 μM, time 40 s), 0.07241; on I2270T hPIEZO1 (1 μM, time 45 s) it was 0.05056; on I2270T hPIEZO1 (1 μM, time 50 s) it was 0.06632; on I2270T hPIEZO1 (1 μM, time 55 s), 0.05818. The “fluorescence (ΔFratio)” value at I2270T hPIEZO1 (1 μM, time 60 s) came to 0.06863; on I2270T hPIEZO1 (1 μM, time 65 s), 0.05602; at I2270T hPIEZO1 (1 μM, time 70 s), 0.06799; at I2270T hPIEZO1 (1 μM, time 75 s), 0.05186; at I2270T hPIEZO1 (1 μM, time 80 s), 0.04949; at I2270T hPIEZO1 (1 μM, time 85 s) it was 0.05597. Further, the “fluorescence (ΔFratio)” value is on record as 0.06467 at I2270T hPIEZO1 (1 μM, time 90 s); 0.02814 at I2270T hPIEZO1 (1 μM, time 95 s); 0.04731 on I2270T hPIEZO1 (1 μM, time 100 s); 0.04051 at I2270T hPIEZO1 (1 μM, time 105 s); 0.04381 at I2270T hPIEZO1 (1 μM, time 110 s); 0.05647 on I2270T hPIEZO1 (1 μM, time 115 s). The “fluorescence (ΔFratio)” value is reported as 0.06513 at I2270T hPIEZO1 (1 μM, time 120 s) and 0.04171 at I2270T hPIEZO1 (1 μM, time 125 s).
The half-life is the time needed for the level to fall by half in the phase considered. The low end stands for rapid decline, the high end for slow decline. `O=C(O)c1ccc(-c2cnc(SCc3c(Cl)cccc3Cl)s2)cc1` [Yoda2b, 4-(2-([(2,6-Dichlorophenyl)methyl]sulfanyl)-1,3-thiazol-5-yl)benzoic acid]: the half-life in series [1] came to 7.2 min.
